Assay results as given in BigSolDB 2.1.

Cc1c(C(=O)/C=C/c2ccccc2)[n+](=O)c2ccccc2n1[O-]
solubility (mole fraction)
Conditions	283.15 K	288.15 K	293.15 K	298.15 K	303.15 K	308.15 K	313.15 K	318.15 K	323.15 K	328.15 K
in DMF	0.00549	0.00639	0.00748	0.00856	0.00978	0.0111	0.0127	0.0145	0.0163	0.0187
in DMSO	–	–	0.00722	0.00807	0.00913	0.0103	0.0117	0.0132	0.0149	0.0167
in ethanol	9.81e-05	0.000123	0.000151	0.00019	0.000233	0.000288	0.000351	0.000425	0.000512	0.000611
in isopropanol	8.14e-05	0.000104	0.000133	0.00017	0.000217	0.000278	0.000348	0.000437	0.000541	0.000668
in water	2.49e-06	2.93e-06	3.4e-06	3.95e-06	4.62e-06	5.32e-06	6.12e-06	7e-06	7.96e-06	9.03e-06
